Values of other authors in EP2919756B1, “SOLID LIPID NANOPARTICLES OF ROXITHROMYCIN FOR HAIR LOSS OR ACNE” (Gdanski Uniwersytet Medyczny, priority 2012, dated 2014).

Experiments:
[1] = external application of 0.5% solution for 24 weeks
human hair follicles = human hair follicles in vitro

In the case of `CC[C@H]1OC(=O)[C@H](C)[C@@H](O[C@H]2C[C@@](C)(OC)[C@@H](O)[C@H](C)O2)[C@H](C)[C@@H](O[C@@H]2O[C@H](C)C[C@H](N(C)C)[C@H]2O)[C@](C)(O)C[C@@H](C)/C(=N\OCOCCOC)[C@H](C)[C@@H](O)[C@]1(C)O` [roxithromycin, Roxithromycin], the “local or systemic side effects or undesirable action” value [1] is listed as “no local or systemic side effects or undesirable action was recorded”, the “thickening of the hair” value [1] is listed as “Substantial thickening of the hair” and the restored hair growth ([1]; patients with androgenic hair loss) is listed as “more than half of the patient population”. For the same compound, the hair elongation (human hair follicles) was “caused hair elongation” and the “follicle's passage to the catagen phase” value (human hair follicles; through inhibition of keratinocyte apoptosis) was “inhibit the follicle's passage to the catagen phase”.
